Measured values taken from patent US9809595B2 (priority 2013, dated 2017).

Assays:
[1] = system: Salmonella typhimurium strain SJW1103; test: Bacterial growth assay; format: cell-based; conditions: 5 μl of 100 mM compound in DMSO added to 10 ml LB, 303 K, OD600 read at 2, 4, 6, 8 and 10 hr; FIG. 6
Procedure: The effect of the candidate compounds on the viability of bacteria cultures were first tested before analyzing their effect on the flexibility of FlhBC. 80 compounds out of the 237 compounds were purchased from KISHIDA CHEMICAL Co., Ltd according to the ranking. The Salmonella typhimurium strain SJW1103 was grown in LB medium at 303 K. Overnight cultures were diluted in Fresh LB medium to an optical density at 600 nm (OD600) of 0.1. Each of 5 μl of 100 mM candidate compounds solubilized in DMSO or DMSO alone as a control was added into 10 ml LB medium in 50-ml volume polypropylene conical tubes. For obtaining growth curves of the cell under the presence of each chemical, 0.2 ml of the culture volume were removed at every 2 h (2, 4, 6, 8 and 10 hr) and diluted with 1 ml of LB to measure absorbance at OD600.

secretion of FlgD = test: Secretion assay (Western blot of culture supernatant with anti-FlgD antibody); format: cell-based, Salmonella typhimurium; conditions: supernatant of 8.0 hr culture from the growth assay, strain SJW1103; FIG. 7a and 7b
Procedure: Then, effects of the selected compounds on different type III secretion phenotypes were assessed. 1 ml of the cell suspensions of 8.0 hr culture in the above-growth assay were centrifuged at 13,200 rpm (16,100 g) for 10 min. The supernatant fractions (0.9 ml) were fractionated into new tubes and mixed with 100% trichloroacetic acid thoroughly. The fractions were kept on ice at least 1 h to precipitate secreted proteins. After centrifugation at 15,400 rpm for 30 min, the precipitated supernatant fractions were resuspended in 0.02 ml of 1 M Tris base and stored −30° C. until use. Samples for SDS-PAGE analysis were prepared by adding 5× SDS loading Buffer and then heat at 95° C. for 5 min. SDS-PAGE analyses were carried out at the condition of 200V for 30 min using premade gels purchased from Bio-rad. Electro-blotting onto PVDF membrane was performed with iBlot from Invitrogen and the membranes were developed with Chromogenic Immuno-detection Kit (Invitrogen) using a custom antibody raised against FlgD, a flagellar protein (from Prof. Keiichi Namba, Osaka University). Images were digitized as gray scale color with ChemDoc (Bio-rad). Kaleidoscope (Bio-rad) was used as a molecular marker.

SMILES	effect on bacterial growth (growth curve, OD600) [1]	inhibition of FlgD secretion (type III secretion system) (secretion of FlgD)
Cn1c(=O)c2c(ncn2CC(O)CO)n(C)c1=O (stereo not shown) [compound 47, 7-(2,3-dihydroxypropyl)-1,3-dimethyl-3,7-dihydro-1H-purine-2,6-dione]	slight growth delay	inhibit the secretion of FlgD
COc1cc(Cc2cnc(N)nc2N)cc(OC)c1OC [compound 64, 5-(3,4,5-Trimethoxybenzyl)pyrimidine-2,4-diamine]	slight growth delay	inhibit the secretion of FlgD
